Consider 21 compounds from US8648085B2, “1, 5-dihydro-pyrazolo (3, 4-D) pyrimidin-4-one derivatives and their use as PDE9A mudulators for the treatment of CNS disorders” (Boehringer Ingelheim International GmbH, priority 2007, dated 2014).

Each structure is given as a SMILES string.

One experiment addresses T1, PDE1C (Homo sapiens, UniProt Q14123).
T1 construct: made in house; host or cells: SF9 insect cells (crude lysate used as enzyme source)
As to the kind of experiment: PDE enzymatic activity assay (SPA), PDE1C, cAMP as substrate. The format is biochemical. The conditions noted are these: ratio IC50 PDE1C / IC50 PDE9A; for illustrative purposes. As for the experimental part: (§1) The PDE enzymatic activity assays were run as SPA, in general according to the protocol of the manufacturer (Amersham Biosciences, product number: TRKQ 7100). As enzyme source, lysate (PBS with 1% Triton X-100 supplemented with protease inhibitors, cell debris removed by centrifugation at 13.000 rpm for 30 min) of SF 9 cell expressing the human PDE of interest was used. The total protein amount included in the assay varied upon infection and production efficacy of the SF9 cells and lay in the range of […].
(§2) In general, the assay conditions were as follows: • total assay volume: 40 μl • protein amount: 0.1-50 ng • substrate concentration (cGMP or cAMP): 20 nM; ˜1 mCi/l • incubation time: 60 min at room temperature • final DMSO concentration: 1%
(§3) The assays were run in 384-well format. The test reagents as well as the enzyme and the substrate were diluted in assay buffer. The assay buffer contained 50 mM Tris, 8.3 mM MgCl2, 1.7 mM EGTA, 0.1% BSA, 0.05% Tween 20; the pH of assay buffer was adjusted to 7.5. In case activity of PDE1C was analysed, 50 nM Calmodulin and 3 mM CaCl2 were included in the assay buffer. In case PDE9 activity was analyzed, the reaction was stopped by applying a PDE9 specific inhibitor (e.g. compounds according to WO2004/099210). PDE1C was analysed with cAMP as substrate, and PDE9 was analyzed with cGMP as substrate.
(§4) IC50 can be calculated in a conventional way, eventually with the help of GraphPadPrism or other suited software setting the positive control as 100 and the negative control as 0. For calculation of IC50 usually 8 dilutions of the test compound ([…]) are to be selected and tested following the aforementioned protocol.

In another experiment the target is PDE9A (Homo sapiens, UniProt O76083). In words: PDE enzymatic activity assay (SPA), PDE9A. In kind it is biochemical. Details: made in house; host or cells: SF9 insect cells (crude lysate used as enzyme source). The conditions noted are these: cGMP substrate, for illustrative purposes; for inhibition at 10 µM: 10 micromolar; for IC50: given as ranges. As for the experimental part: as §1, §2, §3
Calculation of % Inhibition:
The activity of the positive control (minus the negative control=background) is set to 100% and activity in the presence of test compound is expressed relative to these 100%.
Within this setting, an inhibition above 100% might be possible due to the nature of the variation of the positive control within the assay, however, in this case the reported % inhibition had been adjusted to 100%.
as §4

The term inhibition denotes the drop in the measured response relative to a control, in per cent. The term IC50 denotes the point on the concentration scale where inhibition reaches its midpoint. High values mean a need for much substance, low ones inhibition by little substance.

Sequence of PDE9A (O76083 whole entry): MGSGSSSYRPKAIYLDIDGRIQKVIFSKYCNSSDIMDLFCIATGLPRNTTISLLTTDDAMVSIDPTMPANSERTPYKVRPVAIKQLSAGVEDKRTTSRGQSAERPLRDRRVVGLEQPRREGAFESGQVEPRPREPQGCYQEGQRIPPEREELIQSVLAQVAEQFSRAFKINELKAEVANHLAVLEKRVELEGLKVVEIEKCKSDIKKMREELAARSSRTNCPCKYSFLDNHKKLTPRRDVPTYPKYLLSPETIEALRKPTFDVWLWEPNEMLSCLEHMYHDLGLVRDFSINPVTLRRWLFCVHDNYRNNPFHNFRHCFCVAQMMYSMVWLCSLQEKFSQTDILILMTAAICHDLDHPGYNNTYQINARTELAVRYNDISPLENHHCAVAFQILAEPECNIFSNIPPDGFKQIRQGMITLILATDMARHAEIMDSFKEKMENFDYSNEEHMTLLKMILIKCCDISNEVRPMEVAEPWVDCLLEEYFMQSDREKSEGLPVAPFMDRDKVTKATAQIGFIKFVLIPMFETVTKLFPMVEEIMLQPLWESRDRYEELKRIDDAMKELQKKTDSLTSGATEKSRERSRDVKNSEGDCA

Take `COc1ccc(Cl)c(-n2ncc3c(=O)[nH]c(Cc4ccccc4OC(F)(F)F)nc32)c1` [Example 22, 1-(2-Chloro-5-methoxy-phenyl)-6-(2-trifluoromethoxy-benzyl)-1,5-dihydro-pyrazolo[3,4-d]pyrimidin-4-one]: the “Selectivity = IC50 PDE 1C/IC50 PDE9A (both nanomolar)” value (“Selectivity = IC50 PDE 1C/IC50 PDE9A” below) at PDE1C stood at 14. Besides, at PDE9A, the inhibition at 10 µM was found to be 98% and the concentration for half-maximal inhibition (IC50) lay within 10 to 500 nM.
For the compound `Cc1cc(-n2ncc3c(=O)[nH]c(Cc4ccccc4OC(F)(F)F)nc32)c(Cl)cc1F` [Example 23, 1-(2-Chloro-4-fluoro-5-methyl-phenyl)-6-(2-trifluoromethoxy-benzyl)-1,5-dihydro-pyrazolo[3,4-d]pyrimidin-4-one], the “Selectivity = IC50 PDE 1C/IC50 PDE9A” value on PDE1C was 46. For the same compound, on PDE9A, the inhibition at 10 µM was determined as 85% and the half-inhibitory concentration (IC50) is more than 500 nM.
The matching figures for `Cc1cccc(Cl)c1-n1ncc2c(=O)[nH]c(Cc3ccccc3OC(F)(F)F)nc21` [Example 24, 1-(2-Chloro-6-methyl-phenyl)-6-(2-trifluoromethoxy-benzyl)-1,5-dihydro-pyrazolo[3,4-d]pyrimidin-4-one]: 49, 87% and more than 500 nM.
Turning to `O=c1[nH]c(Cc2ccccc2OC(F)(F)F)nc2c1cnn2-c1c(Cl)cccc1Cl` [Example 25, 1-(2,6-Dichloro-phenyl)-6-(2-trifluoromethoxy-benzyl)-1,5-dihydro-pyrazolo[3,4-d]pyrimidin-4-one], the “Selectivity = IC50 PDE 1C/IC50 PDE9A” value at PDE1C is listed as 24. Also, on PDE9A, the inhibition at 10 µM was 58% and the 50% inhibitory concentration (IC50) is more than 500 nM.
In the case of `O=c1[nH]c(Cc2ccccc2OC(F)(F)F)nc2c1cnn2-c1cccc(F)c1` [Example 26, 1-(3-Fluoro-phenyl)-6-(2-trifluoromethoxy-benzyl)-1,5-dihydro-pyrazolo[3,4-d]pyrimidin-4-one], the “Selectivity = IC50 PDE 1C/IC50 PDE9A” value on PDE1C turned out to be 24. Moreover, at PDE9A, the inhibition at 10 µM came out at 51% and the IC50 is more than 500 nM.
The matching figures for `CCOc1cc(Cl)c(-n2ncc3c(=O)[nH]c(Cc4ccccc4OC(F)(F)F)nc32)cc1C` [Example 27, 1-(2-Chloro-4-ethoxy-5-methyl-phenyl)-6-(2-trifluoromethoxy-benzyl)-1,5-dihydro-pyrazolo [3,4-d]pyrimidin-4-one]: 14, 67% and more than 500 nM.
In the case of `Cc1c(F)cccc1-n1ncc2c(=O)[nH]c(Cc3ccccc3OC(F)(F)F)nc21` [Example 28, 1-(3-Fluoro-2-methyl-phenyl)-6-(2-trifluoromethoxy-benzyl)-1,5-dihydro-pyrazolo[3,4-d]pyrimidin-4-one], the “Selectivity = IC50 PDE 1C/IC50 PDE9A” value on PDE1C worked out at 8. Further, at PDE9A, the inhibition at 10 µM was found to be 96% and the half-maximal inhibitory concentration (IC50) was in the range of 10 to 500 nM.
Regarding `O=c1[nH]c(Cc2ccccc2OC(F)(F)F)nc2c1cnn2-c1cccc(Cl)c1Cl` [Example 29, 1-(2,3-Dichloro-phenyl)-6-(2-trifluoromethoxy-benzyl)-1,5-dihydro-pyrazolo[3,4-d]pyrimidin-4-one], on PDE1C, the “Selectivity = IC50 PDE 1C/IC50 PDE9A” value was 9. On PDE9A, the inhibition at 10 µM worked out at 89% and the IC50 lay in the range of 10 to 500 nM.
For `COc1c(F)cccc1-n1ncc2c(=O)[nH]c(Cc3ccccc3OC(F)(F)F)nc21` [Example 30, 1-(2-Methoxy,3-fluoro-phenyl)-6-(2-trifluoromethoxy-benzyl)-1,5-dihydro-pyrazolo[3,4-d]pyrimidin-4-one], the “Selectivity = IC50 PDE 1C/IC50 PDE9A” value at PDE1C came to 8. At PDE9A, the inhibition at 10 µM amounted to 95% and the IC50 lay within 10 to 500 nM.
Take `O=C(O)c1cccc(-n2ncc3c(=O)[nH]c(Cc4ccccc4OC(F)(F)F)nc32)c1` [Example 30-1, 1-(3-Carbox-phenyl)-6-(2-trifluoromethoxy-benzyl)-1,5-dihydro-pyrazolo[3,4-d]pyrimidin-4-one]: the “Selectivity = IC50 PDE 1C/IC50 PDE9A” value at PDE1C is 55. On PDE9A, the inhibition at 10 µM is 101% and the IC50 fell in the range of 10 to 500 nM.
`O=C(O)c1ccc(Cl)c(-n2ncc3c(=O)[nH]c(Cc4ccccc4OC(F)(F)F)nc32)c1` [Example 30-2, 1-(2-Chloro-5-carbox-phenyl)-6-(2-trifluoromethoxy-benzyl)-1,5-dihydro-pyrazolo[3,4-d]pyrimidin-4-one]: the “Selectivity = IC50 PDE 1C/IC50 PDE9A” value on PDE1C amounted to 55. On PDE9A, the inhibition at 10 µM was 100% and the IC50 was 10 to 500 nM.
Regarding `O=c1[nH]c(Cc2ccccc2OC(F)(F)F)nc2c1cnn2-c1cc(O)ccc1Cl` [Example 30-3, 1-(2-Chloro-5-hydroxy-phenyl)-6-(2-trifluoromethoxy-benzyl)-1,5-dihydro-pyrazolo[3,4-d]pyrimidin-4-one], on PDE1C, the “Selectivity = IC50 PDE 1C/IC50 PDE9A” value came to 14. At PDE9A, the inhibition at 10 µM was determined as 100% and the half-maximal inhibitory concentration (IC50) lay within 10 to 500 nM.
Turning to `O=c1[nH]c(Cc2ccccc2OC(F)(F)F)nc2c1cnn2-c1cccc(F)c1F` [Example 30-4, 1-(2,3-Difluoro-phenyl)-6-(2-trifluoromethoxy-benzyl)-1,5-dihydro-pyrazolo[3,4-d]pyrimidin-4-one], the “Selectivity = IC50 PDE 1C/IC50 PDE9A” value at PDE1C was determined as 3. Further, on PDE9A, the inhibition at 10 µM is 99% and the IC50 fell in the range of 10 to 500 nM.
As for `CC(=O)Nc1cccc(-n2ncc3c(=O)[nH]c(Cc4ccccc4OC(F)(F)F)nc32)c1` [Example 30-5, 1-(3-Acetamido-phenyl)-6-(2-trifluoromethoxy-benzyl)-1,5-dihydro-pyrazolo[3,4-d]pyrimidin-4-one], the “Selectivity = IC50 PDE 1C/IC50 PDE9A” value on PDE1C came to 26. At PDE9A, the inhibition at 10 µM was 97% and the IC50 was in the range of 10 to 500 nM.
In the case of `O=c1[nH]c(Cc2ccccc2OC(F)(F)F)nc2c1cnn2-c1ccc(F)cc1O` [Example 31, 1-(2-Hydroxy,4-fluoro-phenyl)-6-(2-trifluoromethoxy-benzyl)-1,5-dihydro-pyrazolo[3,4-d]pyrimidin-4-one], at PDE1C, the “Selectivity = IC50 PDE 1C/IC50 PDE9A” value stood at 8. Besides, on PDE9A, the inhibition at 10 µM was 82% and the half-inhibitory concentration (IC50) is more than 500 nM.
Regarding `O=c1[nH]c(Cc2ccccc2OC(F)(F)F)nc2c1cnn2-c1cnccc1C(F)(F)F` [Example 32, 6-(2-Trifluoromethoxy-benzyl)-1-(4-trifluoromethyl-pyridin-3-yl)-1,5-dihydro-pyrazolo[3,4-d]pyrimidin-4-one], the “Selectivity = IC50 PDE 1C/IC50 PDE9A” value on PDE1C amounted to 11. For the same compound, on PDE9A, the inhibition at 10 µM is 91% and the IC50 is 10 to 500 nM.
As to `O=c1[nH]c(Cc2ccccc2OC(F)(F)F)nc2c1cnn2-c1cccnc1` [Example 33, 6-(2-Trifluoromethoxy-benzyl)-1-(pyridin-3-yl)-1,5-dihydro-pyrazolo[3,4-d]pyrimidin-4-one], on PDE1C, the “Selectivity = IC50 PDE 1C/IC50 PDE9A” value came out at 4. Also, at PDE9A, the inhibition at 10 µM came out at 89% and the IC50 lay in the range of 10 to 500 nM.
As for `O=C(c1ccc(Cl)c(-n2ncc3c(=O)[nH]c(Cc4ccccc4OC(F)(F)F)nc32)c1)N1CCCCC1` [Example 35, 1-[2-Chloro-5-(piperidine-1-carbonyl)-phenyl]-6-(2-trifluoromethoxy-benzyl)-1,5-dihydro-pyrazolo[3,4-d]pyrimidin-4-one], the “Selectivity = IC50 PDE 1C/IC50 PDE9A” value at PDE1C is reported as 10. Further, at PDE9A, the inhibition at 10 µM stood at 93% and the IC50 is 10 to 500 nM.
For the compound `CN(C)C(=O)c1ccc(Cl)c(-n2ncc3c(=O)[nH]c(Cc4ccccc4OC(F)(F)F)nc32)c1` [Example 36, 1-[2-Chloro-5-(dimethylamino-carbonyl)-phenyl]-6-(2-trifluoromethoxy-benzyl)-1,5-dihydro-pyrazolo[3,4-d]pyrimidin-4-one], the “Selectivity = IC50 PDE 1C/IC50 PDE9A” value on PDE1C is on record as 54. For the same compound, on PDE9A, the inhibition at 10 µM came out at 98% and the IC50 lay within 10 to 500 nM.
As for `O=C(c1ccc(Cl)c(-n2ncc3c(=O)[nH]c(Cc4ccccc4OC(F)(F)F)nc32)c1)N1CCOCC1` [Example 37, 1-[2-Chloro-5-(N-morpholino-carbonyl)-phenyl]-6-(2-trifluoromethoxy-benzyl)-1,5-dihydro-pyrazolo[3,4-d]pyrimidin-4-one], the “Selectivity = IC50 PDE 1C/IC50 PDE9A” value at PDE1C was determined as 27. At PDE9A, the inhibition at 10 µM was 99% and the IC50 fell in the range of 10 to 500 nM.
Consider `O=C(c1cccc(-n2ncc3c(=O)[nH]c(Cc4ccccc4OC(F)(F)F)nc32)c1)N1CCOCC1` [Example 38, 1-[3-(N-morpholino-carbonyl)-phenyl]-6-(2-trifluoromethoxy-benzyl)-1,5-dihydro-pyrazolo[3,4-d]pyrimidin-4-one], for which the “Selectivity = IC50 PDE 1C/IC50 PDE9A” value on PDE1C turned out to be 9. Also, on PDE9A, the inhibition at 10 µM came to 92% and the half-inhibitory concentration (IC50) was more than 500 nM.
